± gives the uncertainty stated by the source.
Experiment: xn = mol fraction of the nth substance listed
Settings: 101 kPa

CCCCCCCCCCCC[N+](C)(C)Cc1ccccc1.[Cl-] + CC(C)[C@H](N)C(=O)O + O
electrical conductivity [S/m]
Settings	293.15 K	298.15 K	303.15 K	308.15 K	313.15 K
x2 = 0.0008891, x1 = 0.0003	0.0839 ± 0.0053	0.0943 ± 0.0059	0.106 ± 0.0066	0.118 ± 0.0073	0.132 ± 0.0081
x2 = 0.0008891, x1 = 0.000319	0.087 ± 0.0055	0.0977 ± 0.0061	0.11 ± 0.0068	0.123 ± 0.0076	0.137 ± 0.0084
x2 = 0.0008892, x1 = 0.0001722	0.0627 ± 0.004	0.0699 ± 0.0044	0.0776 ± 0.0048	0.0856 ± 0.0053	0.0943 ± 0.0058
x2 = 0.0008892, x1 = 0.0001982	0.0677 ± 0.0043	0.0756 ± 0.0047	0.0841 ± 0.0052	0.0932 ± 0.0057	0.103 ± 0.0063
x2 = 0.0008892, x1 = 0.000222	0.0717 ± 0.0045	0.0802 ± 0.005	0.0894 ± 0.0055	0.0993 ± 0.0061	0.11 ± 0.0067
x2 = 0.0008892, x1 = 0.0002429	0.0751 ± 0.0047	0.0841 ± 0.0053	0.0939 ± 0.0058	0.104 ± 0.0064	0.116 ± 0.0071
x2 = 0.0008892, x1 = 0.0002636	0.0783 ± 0.0048	0.0878 ± 0.0054	0.0982 ± 0.006	0.109 ± 0.0067	0.122 ± 0.0074
x2 = 0.0008892, x1 = 0.0002822	0.0812 ± 0.0051	0.0912 ± 0.0057	0.102 ± 0.0063	0.114 ± 0.007	0.127 ± 0.0078
x2 = 0.0008893, x1 = 7.858e-05	0.0307 ± 0.0019	0.0345 ± 0.0022	0.0383 ± 0.0024	0.0422 ± 0.0026	0.046 ± 0.0029
x2 = 0.0008893, x1 = 9.958e-05	0.0385 ± 0.0024	0.0432 ± 0.0027	0.0479 ± 0.003	0.0528 ± 0.0033	0.0577 ± 0.0036
x2 = 0.0008893, x1 = 0.0001218	0.0467 ± 0.0029	0.0524 ± 0.0033	0.058 ± 0.0036	0.064 ± 0.004	0.0701 ± 0.0044
x2 = 0.0008893, x1 = 0.0001461	0.0553 ± 0.0035	0.0619 ± 0.0039	0.0686 ± 0.0043	0.0756 ± 0.0047	0.0827 ± 0.0051
x2 = 0.0008894, x1 = 5.704e-05	0.0227 ± 0.0014	0.0255 ± 0.0016	0.0283 ± 0.0018	0.0312 ± 0.002	0.034 ± 0.0021
x2 = 0.001757, x1 = 5.785e-05	0.0228 ± 0.0014	0.0256 ± 0.0016	0.0285 ± 0.0018	0.0315 ± 0.002	0.0345 ± 0.0022
x2 = 0.001757, x1 = 7.859e-05	0.0304 ± 0.0019	0.0341 ± 0.0021	0.0379 ± 0.0024	0.0418 ± 0.0027	0.0458 ± 0.0029
x2 = 0.001757, x1 = 0.0001001	0.0382 ± 0.0024	0.0428 ± 0.0027	0.0475 ± 0.003	0.0528 ± 0.0033	0.0574 ± 0.0036
x2 = 0.001757, x1 = 0.000121	0.0457 ± 0.0029	0.0512 ± 0.0032	0.0568 ± 0.0036	0.0628 ± 0.004	0.0689 ± 0.0044
x2 = 0.001757, x1 = 0.0001443	0.0537 ± 0.0034	0.0601 ± 0.0037	0.0666 ± 0.0041	0.0735 ± 0.0046	0.0809 ± 0.0051
x2 = 0.001757, x1 = 0.0001688	0.0607 ± 0.0038	0.0676 ± 0.0042	0.075 ± 0.0046	0.0828 ± 0.0051	0.0914 ± 0.0056
x2 = 0.001757, x1 = 0.0001945	0.0657 ± 0.0042	0.0733 ± 0.0046	0.0815 ± 0.005	0.0905 ± 0.0055	0.1 ± 0.0061
x2 = 0.001757, x1 = 0.0002205	0.07 ± 0.0045	0.0783 ± 0.0049	0.0872 ± 0.0054	0.0971 ± 0.0059	0.108 ± 0.0066
x2 = 0.001757, x1 = 0.0002437	0.0737 ± 0.0047	0.0826 ± 0.0052	0.0919 ± 0.0057	0.103 ± 0.0063	0.114 ± 0.007
x2 = 0.001757, x1 = 0.0002647	0.0773 ± 0.0047	0.0864 ± 0.0053	0.0965 ± 0.0059	0.108 ± 0.0066	0.12 ± 0.0074
x2 = 0.001757, x1 = 0.0002841	0.0803 ± 0.0051	0.09 ± 0.0056	0.101 ± 0.0062	0.112 ± 0.0069	0.126 ± 0.0077
x2 = 0.001757, x1 = 0.0003021	0.0834 ± 0.0053	0.0937 ± 0.0058	0.105 ± 0.0065	0.117 ± 0.0072	0.13 ± 0.008
x2 = 0.001757, x1 = 0.0003234	0.0872 ± 0.0055	0.0978 ± 0.0061	0.11 ± 0.0068	0.122 ± 0.0075	0.136 ± 0.0083

From the CheMixHub ionic liquid set
